# Source: patent publication US20250195513A1, “DEGRADATION OF IRAK4 BY CONJUGATION OF IRAK4 INHIBITORS WITH E3 LIGASE LIGAND AND METHODS OF USE” (BeiGene, Ltd., priority 2022, published 2025)
# Like-named read-outs stand apart in the source and are kept apart here.
# Molecular target: T1, IRAK4 (Homo sapiens, UniProt Q9NWZ3)
# T1 construct: endogenous in cells; host or cells: Karpas299
# T1 sequence (Q9NWZ3 1-460): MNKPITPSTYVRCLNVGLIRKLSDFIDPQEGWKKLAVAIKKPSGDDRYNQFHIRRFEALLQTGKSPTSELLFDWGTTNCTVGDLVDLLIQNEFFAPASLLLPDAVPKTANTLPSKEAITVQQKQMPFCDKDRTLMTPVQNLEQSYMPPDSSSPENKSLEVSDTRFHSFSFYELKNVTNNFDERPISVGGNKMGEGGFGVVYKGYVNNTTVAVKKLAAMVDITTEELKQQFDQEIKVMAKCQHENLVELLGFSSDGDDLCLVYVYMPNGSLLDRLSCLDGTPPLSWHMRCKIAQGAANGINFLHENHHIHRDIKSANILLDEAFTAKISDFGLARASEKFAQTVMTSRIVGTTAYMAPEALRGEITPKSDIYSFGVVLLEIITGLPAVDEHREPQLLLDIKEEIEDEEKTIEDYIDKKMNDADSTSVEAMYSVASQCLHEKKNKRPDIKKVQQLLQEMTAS
# Test: IRAK4 Degradation Assay (Karpas299, HTRF/TR-FRET)
# Type: cell-based
# Summary of the method: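 Compound potency as DC50 (IC50) came from four-parameter fits of percent IRAK4 degradation. IRAK4 was measured by HTRF (665/620 nm) in lysates of Karpas299 cells seeded at 0.2 million per well. Cells had been treated with compound dilutions for 5 or 24 h.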
# [1] = Degradation (Karpas-299), comparison table, Linker Type A, read-out: Compound (Linker Type A) DC50
# [2] = Degradation (Karpas-299), comparison table, Linker Type A, read-out: Compound (Linker Type A) Dmax (%)
# [3] = Karpas-299 cells, 24 h treatment, maximum percentage of degradation, read-out: IRAK4 in Karpas-299 (24 h) Dmax (%)
# [4] = Karpas-299 cells, 24 h treatment, read-out: IRAK4 in Karpas-299 (24 h) DC50
# [5] = Karpas-299 cells, 5 h treatment, maximum percentage of degradation, read-out: IRAK4 in Karpas-299 (5 h) Dmax (%)
# [6] = Karpas-299 cells, 5 h treatment, read-out: IRAK4 in Karpas-299 (5 h) DC50
DC50 [1],Dmax [2],Dmax [3],DC50 [4],Dmax [5],DC50 [6],Structure (SMILES)
,,96%,0.9 nM,,,"CC(C)(O)c1cc2nn([C@H]3CC[C@H](N4CCN(C5CCN(c6cc(F)c([C@H]7CCC(=O)NC7=O)c(F)c6)CC5)CC4)CC3)cc2cc1NC(=O)c1coc2cccnc12 [Example 405, N-(2-((1r,4r)-4-(4-(1-(4-((R)-2,6-dioxopiperidin-3-yl)-3,5-difluorophenyl)piperidin-4-yl)piperazin-1-yl)cyclohexyl)-6-(2-hydroxypropan-2-yl)-2H-indazol-5-yl)furo[3,2-b]pyridine-3-carboxamide]"
,,97%,2.1 nM,,,"NC(=O)c1nn([C@H]2CC[C@H](N3CCN(C(=O)C4CN(c5ccc(N6CCC(=O)NC6=O)cc5)C4)CC3)CC2)cc1NC(=O)c1coc(-c2ccnc(NCC(F)(F)F)c2)n1 [Example 8, N-(3-carbamoyl-1-((1r,4r)-4-(4-(1-(4-(2,4-dioxotetrahydropyrimidin-1(2H)-yl)phenyl)azetidine-3-carbonyl)piperazin-1-yl)cyclohexyl)-1H-pyrazol-4-yl)-2-(2-((2,2,2-trifluoroethyl)amino)pyridin-4-yl)oxazole-4-carboxamide]"
,,97%,1 nM,,,"CC(C)(O)c1cc2nn([C@H]3CC[C@H](N4CCN(C(=O)N5CCN(c6cc(F)c([C@H]7CCC(=O)NC7=O)c(F)c6)CC5)CC4)CC3)cc2cc1NC(=O)c1ccc2cc(C#N)cnn12 [Example 225, 3-cyano-N-(2-((1r,4r)-4-(4-(4-(4-((R)-2,6-dioxopiperidin-3-yl)-3,5-difluorophenyl)piperazine-1-carbonyl)piperazin-1-yl)cyclohexyl)-6-(2-hydroxypropan-2-yl)-2H-indazol-5-yl)pyrrolo[1,2-b]pyridazine-7-carboxamide]"
,,58%,252 nM,,,"CC(C)(O)c1cc2nn([C@H]3CC[C@H](N4CCN(CC(=O)N[C@@H](Cc5ccccc5)C(=O)NC5CCC(=O)NC5=O)CC4)CC3)cc2cc1NC(=O)c1ccc2cc(C#N)cnn12 (stereo partly drawn) [Example 439, 3-cyano-N-(2-((1S,4r)-4-(4-(2-(((2S)-1-((2,6-dioxopiperidin-3-yl)amino)-1-oxo-3-phenylpropan-2-yl)amino)-2-oxoethyl)piperazin-1-yl)cyclohexyl)-6-(2-hydroxypropan-2-yl)-2H-indazol-5-yl)pyrrolo[1,2-b]pyridazine-7-carboxamide]"

# Further lines, the compound ahead of its results:
Structure (SMILES),DC50 [1],Dmax [2],Dmax [3],DC50 [4],Dmax [5],DC50 [6]
"O=C1CCN(c2ccc(N3CC(N4CCN(C[C@H]5CC[C@H](n6cc(NC(=O)c7coc(-c8ccnc(NCC(F)(F)F)c8)n7)c(C(F)F)n6)CC5)CC4)C3)cc2)C(=O)N1 [Example 3, N-(3-(difluoromethyl)-1-((1r,4r)-4-((4-(1-(4-(2,4-dioxotetrahydropyrimidin-1(2H)-yl)phenyl)azetidin-3-yl)piperazin-1-yl)methyl)cyclohexyl)-1H-pyrazol-4-yl)-2-(2-((2,2,2-trifluoroethyl)amino)pyridin-4-yl)oxazole-4-carboxamide]",> 10000 nM,9%,9%,> 10000 nM,,
"COc1cc2nn(C3CCN(C4CCN(C(=O)[C@@H]5CCN(c6cc(F)c([C@H]7CCC(=O)NC7=O)c(F)c6)C5)CC4)CC3)cc2cc1NC(=O)c1cccc(C(F)(F)F)n1 [Example 43, N-(2-(1′-((R)-1-(4-((R)-2,6-dioxopiperidin-3-yl)-3,5-difluorophenyl)pyrrolidine-3-carbonyl)-[1,4′-bipiperidin]-4-yl)-6-methoxy-2H-indazol-5-yl)-6-(trifluoromethyl)picolinamide]",,,95%,7.7 nM,,
"[2H]C([2H])([2H])Oc1cc2nn([C@H]3CC[C@H](N4CCN(C(=O)[C@@H]5CCN(c6cc(F)c([C@H]7CCC(=O)NC7=O)c(F)c6)C5)CC4)CC3)cc2cc1NC(=O)c1cccc(C(F)(F)F)n1 [Example 169, N-(2-((1R,4r)-4-(4-((R)-1-(4-((R)-2,6-dioxopiperidin-3-yl)-3,5-difluorophenyl)pyrrolidine-3-carbonyl)piperazin-1-yl)cyclohexyl)-6-(methoxy-d3)-2H-indazol-5-yl)-6-(trifluoromethyl)picolinamide]",,,99%,4.3 nM,95%,17 nM
"COc1cc2nn([C@H]3CC[C@H](NC(=O)C4CCN(c5ccc6c(c5)C(=O)N(C5CCC(=O)NC5=O)C6=O)CC4)CC3)cc2cc1NC(=O)c1cccc(C(F)(F)F)n1 (stereo partly shown) [Example 32, N-(2-((1r,4r)-4-(1-(2-(2,6-dioxopiperidin-3-yl)-1,3-dioxoisoindolin-5-yl)piperidine-4-carboxamido)cyclohexyl)-6-methoxy-2H-indazol-5-yl)-6-(trifluoromethyl)picolinamide]",,,95%,2.7 nM,91%,15 nM
"N#Cc1cnn2c(C(=O)Nc3cc4cn([C@H]5CC[C@H](N6CCN(C(=O)C7CN(c8cc(F)c([C@H]9CCC(=O)NC9=O)c(F)c8)C7)CC6)CC5)nc4c4c3OC(F)(F)O4)ccc2c1 [Example 384, 3-cyano-N-(2-((1r,4r)-4-(4-(1-(4-((R)-2,6-dioxopiperidin-3-yl)-3,5-difluorophenyl)azetidine-3-carbonyl)piperazin-1-yl)cyclohexyl)-7,7-difluoro-2H-[1,3]dioxolo[4,5-g]indazol-5-yl)pyrrolo[1,2-b]pyridazine-7-carboxamide]",,,97%,2.2 nM,,
"N#Cc1cnc2c(C(=O)Nc3ccc4nn([C@H]5CC[C@H](N6CCN(C7CN(c8cc(F)c([C@H]9CCC(=O)NC9=O)c(F)c8)C7)CC6)CC5)cc4c3)cnn2c1 [Example 424, 6-cyano-N-(2-((1R,4r)-4-(4-(1-(4-((R)-2,6-dioxopiperidin-3-yl)-3,5-difluorophenyl)azetidin-3-yl)piperazin-1-yl)cyclohexyl)-2H-indazol-5-yl)pyrazolo[1,5-a]pyrimidine-3-carboxamide]",,,42%,> 1000 nM,,
"O=C1CC[C@H](c2c(F)cc(N3CC(C(=O)N4CCN(C[C@H]5CC[C@H](n6cc(NC(=O)c7coc(-c8ccnc(NCC(F)(F)F)c8)n7)c(C(F)F)n6)CC5)CC4)C3)cc2F)C(=O)N1 [Example 4, N-(3-(difluoromethyl)-1-((1r,4r)-4-((4-(1-(4-((R)-2,6-dioxopiperidin-3-yl)-3,5-difluorophenyl)azetidine-3-carbonyl)piperazin-1-yl)methyl)cyclohexyl)-1H-pyrazol-4-yl)-2-(2-((2,2,2-trifluoroethyl)amino)pyridin-4-yl)oxazole-4-carboxamide]",6.2 nM,95%,95%,6.2 nM,,
"CC(C)(O)c1cc2nn([C@H]3CC[C@H](N4CCN(C(=O)[C@@H]5CCN(c6cc(F)c(N7CCC(=O)NC7=O)c(F)c6)C5)CC4)CC3)cc2cc1NC(=O)c1cccc(C(F)(F)F)n1 [Example 115, N-(2-((1R,4r)-4-(4-((R)-1-(4-(2,4-dioxotetrahydropyrimidin-1(2H)-yl)-3,5-difluorophenyl)pyrrolidine-3-carbonyl)piperazin-1-yl)cyclohexyl)-6-(2-hydroxypropan-2-yl)-2H-indazol-5-yl)-6-(trifluoromethyl)picolinamide]",,,96%,3.8 nM,,
"N#Cc1cnn2c(C(=O)Nc3cc4cn([C@H]5CC[C@H](N6CCN(CCc7cc(F)c([C@H]8CCC(=O)NC8=O)c(F)c7)CC6)CC5)nc4c4c3OC(F)(F)O4)ccc2c1 [Example 386, 3-cyano-N-(2-((1R,4r)-4-(4-(4-((R)-2,6-dioxopiperidin-3-yl)-3,5-difluorophenethyl)piperazin-1-yl)cyclohexyl)-7,7-difluoro-2H-[1,3]dioxolo[4,5-g]indazol-5-yl)pyrrolo[1,2-b]pyridazine-7-carboxamide]",,,94%,3.2 nM,,
